# According to PubChem BioAssay (NCI):
#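 Interpolation was linear, between the two tested concentrations surrounding the appropriate level; five concentrations were tested over 48 hours in 96-well plates. GI50 = concentration required for 50% inhibition of growth. TGI marks complete inhibition of growth.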
# Experiments:
# Assay in all cases: DTP human tumour cell line panel, 48 h
# [1] = system: 786-0 renal
# [2] = system: A498 renal
# [3] = system: A549 NSCLC
# [4] = system: ACHN renal
# [5] = system: BT-549 breast
# [6] = system: CCRF-CEM leukemia
# [7] = system: COLO 205 colon
# [8] = system: DU-145 prostate
# [9] = system: EKVX NSCLC
# [10] = system: HCC-2998 colon
# [11] = system: HCT-116 colon
# [12] = system: HCT-15 colon
# [13] = system: HL-60(TB) leukemia
# [14] = system: HOP-62 NSCLC
# [15] = system: HOP-92 NSCLC
# [16] = system: HS 578T breast
# [17] = system: HT29 colon
# [18] = system: IGROV1 ovarian
# [19] = system: K-562 leukemia
# [20] = system: KM12 colon
# [21] = system: LOX IMVI melanoma
# [22] = system: M14 melanoma
# [23] = system: MALME-3M melanoma
# [24] = system: MCF7 breast
# [25] = system: MDA-MB-231 breast
# [26] = system: MDA-MB-435
# [27] = system: MOLT-4 leukemia
# [28] = system: NCI-H226 lung
# [29] = system: NCI-H23 lung
# [30] = system: NCI-H460 lung
# [31] = system: NCI-H522 lung
# [32] = system: NCI/ADR-RES ovarian
# [33] = system: OVCAR-3 ovarian
# [34] = system: OVCAR-4 ovarian
# [35] = system: OVCAR-5 ovarian
# [36] = system: OVCAR-8 ovarian
# [37] = system: PC-3 prostate
# [38] = system: RPMI-8226 leukemia
# [39] = system: RXF 393 renal
# [40] = system: SF-268 CNS
# [41] = system: SF-295 CNS
# [42] = system: SF-539 CNS
# [43] = system: SK-MEL-2 melanoma
# [44] = system: SK-MEL-28 melanoma
# [45] = system: SK-MEL-5 melanoma
# [46] = system: SK-OV-3 ovarian
# [47] = system: SN12C renal
# [48] = system: SNB-19 CNS
# [49] = system: SNB-75 CNS
# [50] = system: SR leukemia
# [51] = system: SW-620 colon
# [52] = system: T-47D breast
# [53] = system: TK-10 renal
# [54] = system: U251 CNS
# [55] = system: UACC-257 melanoma
# [56] = system: UACC-62 melanoma
# [57] = system: UO-31 renal
# [58] = system: CAKI-1 renal
compound,measurement,setting,value
O=C(N/N=C/c1c(Cl)cccc1Cl)c1cccnc1Nc1cccc(C(F)(F)F)c1,GI50,[1],3.87 µM
same,TGI,[1],27.9 µM
same,GI50,[2],3.13 µM
same,TGI,[2],32.8 µM
same,GI50,[3],4.69 µM
same,TGI,[3],> 100 µM
same,GI50,[4],3.04 µM
same,TGI,[4],20.8 µM
same,GI50,[5],3.28 µM
same,TGI,[5],55.5 µM
same,GI50,[6],0.323 µM
same,TGI,[6],10.8 µM
same,GI50,[7],2.9 µM
same,TGI,[7],37.9 µM
same,GI50,[8],5.35 µM
same,TGI,[8],> 100 µM
same,GI50,[9],2.25 µM
same,TGI,[9],27.4 µM
same,GI50,[10],3.86 µM
same,TGI,[10],> 100 µM
same,GI50,[11],1.53 µM
same,TGI,[11],18.1 µM
same,GI50,[12],0.668 µM
same,TGI,[12],> 100 µM
same,GI50,[13],3.15 µM
same,TGI,[13],34.1 µM
same,GI50,[14],3.97 µM
same,TGI,[14],20.8 µM
same,GI50,[15],4.01 µM
same,TGI,[15],25.5 µM
same,GI50,[16],3.59 µM
same,TGI,[16],26.2 µM
same,GI50,[17],4.7 µM
same,TGI,[17],> 100 µM
same,GI50,[18],2.41 µM
same,TGI,[18],54.9 µM
same,GI50,[19],3.57 µM
same,TGI,[19],> 100 µM
same,GI50,[20],3.24 µM
same,TGI,[20],57.3 µM
same,GI50,[21],1.83 µM
same,TGI,[21],19 µM
same,GI50,[22],2.72 µM
same,TGI,[22],17.1 µM
same,GI50,[23],2.95 µM
same,TGI,[23],10.8 µM
same,GI50,[24],3.92 µM
same,TGI,[24],> 100 µM
same,GI50,[25],5.16 µM
same,TGI,[25],72 µM
same,GI50,[26],3.8 µM
same,TGI,[26],> 100 µM
same,GI50,[27],0.942 µM
same,TGI,[27],> 100 µM
same,GI50,[28],2.44 µM
same,TGI,[28],21.9 µM
same,GI50,[29],6.35 µM
same,TGI,[29],> 100 µM
same,GI50,[30],2.04 µM
same,TGI,[30],35.3 µM
same,GI50,[31],2.55 µM
same,TGI,[31],15 µM
same,GI50,[32],1.7 µM
same,TGI,[32],44.6 µM
same,GI50,[33],2.72 µM
same,TGI,[33],27.5 µM
same,GI50,[34],0.941 µM
same,TGI,[34],48.3 µM
same,GI50,[35],4.43 µM
same,TGI,[35],47 µM
same,GI50,[36],3.49 µM
same,TGI,[36],> 100 µM
same,GI50,[37],2.79 µM
same,TGI,[37],> 100 µM
same,GI50,[38],0.717 µM
same,TGI,[38],4.88 µM
same,GI50,[39],6.53 µM
same,TGI,[39],38.6 µM
same,GI50,[40],2.18 µM
same,TGI,[40],> 100 µM
same,GI50,[41],1.78 µM
same,TGI,[41],14 µM
same,GI50,[42],4.28 µM
same,TGI,[42],19.5 µM
same,GI50,[43],11.1 µM
same,TGI,[43],56.1 µM
same,GI50,[44],3.03 µM
same,TGI,[44],40.4 µM
same,GI50,[45],2.34 µM
same,TGI,[45],6.52 µM
same,GI50,[46],3.77 µM
same,TGI,[46],30.2 µM
same,GI50,[47],2.58 µM
same,TGI,[47],98.9 µM
same,GI50,[48],4.62 µM
same,TGI,[48],> 100 µM
same,GI50,[49],3.9 µM
same,TGI,[49],24.8 µM
same,GI50,[50],2.57 µM
same,TGI,[50],28.5 µM
same,GI50,[51],1.66 µM
same,TGI,[51],> 100 µM
same,GI50,[52],2.65 µM
same,TGI,[52],71 µM
same,GI50,[53],4.4 µM
same,TGI,[53],79.2 µM
same,GI50,[54],1.47 µM
same,TGI,[54],11.6 µM
same,GI50,[55],4.31 µM
same,TGI,[55],> 100 µM
same,GI50,[56],2.46 µM
same,TGI,[56],9.64 µM
same,GI50,[57],3 µM
same,TGI,[57],> 100 µM
O=c1ccc2nc(C(F)(F)F)nn(-c3ccccc3)c-2c1,GI50,[2],14.1 µM
same,TGI,[2],27.2 µM
same,GI50,[3],19.3 µM
same,TGI,[3],39 µM
same,GI50,[4],1.18 µM
same,TGI,[4],2.45 µM
same,GI50,[5],12.3 µM
same,TGI,[5],24.8 µM
same,GI50,[58],1.47 µM
same,TGI,[58],2.8 µM
same,GI50,[7],2.32 µM
same,TGI,[7],5.77 µM
same,GI50,[8],1.77 µM
same,TGI,[8],3.17 µM
same,GI50,[9],13.6 µM
same,TGI,[9],27.1 µM
same,GI50,[10],15.4 µM
same,TGI,[10],29.7 µM
same,GI50,[11],1.61 µM
same,TGI,[11],3.15 µM
same,GI50,[12],1.45 µM
same,TGI,[12],3.42 µM
same,GI50,[13],1.21 µM
same,TGI,[13],4.31 µM
same,GI50,[14],7.95 µM
same,TGI,[14],27.7 µM
same,GI50,[15],1.41 µM
same,TGI,[15],2.97 µM
same,GI50,[16],12.2 µM
same,TGI,[16],80.4 µM
same,GI50,[18],11.9 µM
same,TGI,[18],25.5 µM
same,GI50,[19],2.11 µM
same,TGI,[19],9.14 µM
same,GI50,[20],19.6 µM
same,TGI,[20],37.3 µM
same,GI50,[21],1.59 µM
same,TGI,[21],3.22 µM
same,GI50,[22],5.8 µM
same,TGI,[22],19 µM
same,GI50,[23],1.82 µM
same,TGI,[23],3.3 µM
same,GI50,[24],0.495 µM
same,TGI,[24],4.07 µM
same,GI50,[25],1.92 µM
same,TGI,[25],5.55 µM
same,GI50,[26],4.56 µM
same,TGI,[26],16.4 µM
same,GI50,[28],13.1 µM
same,TGI,[28],30.5 µM
same,GI50,[29],5.96 µM
same,TGI,[29],22.2 µM
same,GI50,[30],17.6 µM
same,TGI,[30],36.2 µM
same,GI50,[31],1.51 µM
same,TGI,[31],3.01 µM
same,GI50,[32],17.1 µM
same,TGI,[32],64 µM
same,GI50,[33],1.58 µM
same,TGI,[33],2.95 µM
same,GI50,[34],1.47 µM
same,TGI,[34],2.83 µM
same,GI50,[35],15.4 µM
same,TGI,[35],29.1 µM
same,GI50,[36],4.21 µM
same,TGI,[36],33.9 µM
same,GI50,[37],10.7 µM
same,TGI,[37],23.7 µM
same,GI50,[38],4.82 µM
same,TGI,[38],77.5 µM
same,GI50,[39],1.45 µM
same,TGI,[39],2.8 µM
same,GI50,[40],15 µM
same,TGI,[40],28.9 µM
same,GI50,[41],22.7 µM
same,TGI,[41],67.1 µM
same,GI50,[42],15.8 µM
same,TGI,[42],29.3 µM
same,GI50,[43],3.63 µM
same,TGI,[43],15.6 µM
same,GI50,[44],1.7 µM
same,TGI,[44],3.26 µM
same,GI50,[45],7.8 µM
same,TGI,[45],21.1 µM
same,GI50,[46],15 µM
same,TGI,[46],> 100 µM
same,GI50,[47],7.31 µM
same,TGI,[47],57.4 µM
same,GI50,[49],13.3 µM
same,TGI,[49],26.4 µM
same,GI50,[50],0.999 µM
same,TGI,[50],> 100 µM
same,GI50,[51],1.75 µM
same,TGI,[51],3.71 µM
same,GI50,[52],1.69 µM
same,TGI,[52],6.62 µM
same,GI50,[53],1.62 µM
same,TGI,[53],3.09 µM
same,GI50,[54],13.4 µM
same,TGI,[54],28.6 µM
same,GI50,[55],1.91 µM
same,TGI,[55],4.05 µM
same,GI50,[56],5.13 µM
same,TGI,[56],17.9 µM
same,GI50,[57],1.48 µM
same,TGI,[57],2.9 µM
